For one test, the target named is T1, PRMT1 (Homo sapiens, UniProt Q99873).
T1 construct: made in house
Kind of test: MTase-Glo methyltransferase IC50 assay, PRMT1. As to conditions: for IC50: 200 nM PRMT1, AcH4-21 substrate 225 μM. Format: biochemical. The procedure: (§1) The IC50 value for the peptoid inhibitors were measured using the MTase-Glo methyltransferase assay kit (Promega). The peptoid was incubated in assay buffer (20 mM Tris-HCl pH 8.0, 50 mM NaCl, 1 mM EDTA, 3 mM MgCl2, 0.1 mg/ml BSA, 1 mM DTT) and […] (0–1000 μM). After a preincubation of 10 min, 200 nM PRMT1 or PRMT5 was added to the assay before adding in the substrate (AcH4-21) at 225 μM. After 15 min, the reaction was quenched with 0.5% TFA (0.1% final concentration), vortexed, and incubated for an additional 10 min. To detect product formation, the MTase-Glo reagent was added for 30 min at rt, followed by addition of the MTase-Glo detection solution for an additional 30 min. Finally, the luminescence signal was measured using a BioTek Synergy two multi-mode microplate reader. The values were converted to product concentration using a standard curve of SAH (0–5 μM). The IC50 values were determined using Equation 1 and fit to a curve using GraFit 7.03.(1) FractionalactivityofPRMT=1/(1+([I]/IC50)) IC50 is the concentration of inhibitor resulting in 50% PRMT activity, and [I] is the inhibitor concentration.

The next test deals with T2, PRMT5 (Homo sapiens, UniProt O14744).
T2 construct: made in house
T2 sequence (O14744 whole entry, species assumed): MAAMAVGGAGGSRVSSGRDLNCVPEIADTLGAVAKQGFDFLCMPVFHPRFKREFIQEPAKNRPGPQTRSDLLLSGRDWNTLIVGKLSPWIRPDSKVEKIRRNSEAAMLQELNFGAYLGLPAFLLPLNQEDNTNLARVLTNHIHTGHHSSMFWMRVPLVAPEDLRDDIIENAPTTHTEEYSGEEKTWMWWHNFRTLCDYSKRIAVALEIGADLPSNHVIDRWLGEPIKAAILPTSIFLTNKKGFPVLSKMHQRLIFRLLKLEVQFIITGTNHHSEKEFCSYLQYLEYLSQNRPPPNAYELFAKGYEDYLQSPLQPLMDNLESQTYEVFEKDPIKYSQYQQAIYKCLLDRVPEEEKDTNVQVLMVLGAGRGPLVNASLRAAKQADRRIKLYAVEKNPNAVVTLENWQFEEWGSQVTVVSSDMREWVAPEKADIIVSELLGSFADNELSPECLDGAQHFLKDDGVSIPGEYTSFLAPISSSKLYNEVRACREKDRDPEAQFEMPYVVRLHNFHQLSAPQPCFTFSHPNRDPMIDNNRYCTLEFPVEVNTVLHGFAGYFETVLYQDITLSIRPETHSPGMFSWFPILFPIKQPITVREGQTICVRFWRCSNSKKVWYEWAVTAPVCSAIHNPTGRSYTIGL
Kind of test: MTase-Glo methyltransferase IC50 assay, PRMT5. Format: biochemical. As to conditions: 200 nM PRMT5, AcH4-21 substrate 225 μM. Here is the method: as §1

Values joined by “and” are separate entries in the source; they are usually repeats but may differ in a detail not shown here. Identical values can stand only once. *1 amine or outer side, *2 acyl side, *3 side chain or, on linkers, in order; H or OH if unused. Where a SMILES comes first, the peptide text is derived from it. [ ]: non-standard residue; d: D form. X2 = N=C(CCl)NCCC[C@H](N[*:1])C(=O)[*:2]; X1 = N=C(CCl)NCCCN(CC(=O)[*:2])[*:1]; Gly(N-CH2CH2OH) = O=C(O)CNCCO; Nleu = CC(C)CNCC(=O)O; Nlys = NCCCCNCC(=O)O; Sar = CNCC(=O)O

T1 sequence (Q99873 1-353 isoform Q99873-3, species assumed): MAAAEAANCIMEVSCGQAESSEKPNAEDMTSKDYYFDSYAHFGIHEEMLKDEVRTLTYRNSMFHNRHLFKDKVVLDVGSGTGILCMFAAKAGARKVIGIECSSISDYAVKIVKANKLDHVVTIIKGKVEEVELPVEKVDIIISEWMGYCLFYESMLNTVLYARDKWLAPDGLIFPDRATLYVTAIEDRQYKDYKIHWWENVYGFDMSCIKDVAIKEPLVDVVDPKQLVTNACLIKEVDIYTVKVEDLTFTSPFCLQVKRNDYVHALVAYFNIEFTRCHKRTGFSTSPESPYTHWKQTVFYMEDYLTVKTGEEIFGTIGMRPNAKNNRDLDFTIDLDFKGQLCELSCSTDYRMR

Regarding `CC(=O)N[C@@H](CO)C(=O)NCC(=O)N[C@@H](CCCNC(=N)CCl)C(=O)NCC(=O)N[C@@H](CCCCN)C(=O)NCC(=O)NCC(=O)N[C@@H](CCCCN)C(=O)NCC(=O)N[C@@H](CC(C)C)C(=O)NCC(=O)N[C@@H](CCCCN)C(=O)NCC(=O)NCC(=O)N[C@@H](C)C(=O)N[C@@H](CCCCN)C(N)=O` [AcH4-16 warhead peptide] (Ac-SG[X2]GKGGKGLGKGGAK-NH2; C-terminus assumed), the IC50 (usually the point on the concentration scale where inhibition reaches its midpoint) at PRMT1 is 46.9 ± 4.86 µM.
On to `CC(C)CN(CC(=O)NCC(=O)N(CCCCN)CC(=O)NCC(=O)NCC(=O)N(C)CC(=O)N(CCCCN)CC(N)=O)C(=O)CNC(=O)CN(CCCCN)C(=O)CNC(=O)CNC(=O)CN(CCCCN)C(=O)CNC(=O)CN(CCCNC(=N)CCl)C(=O)CNC(=O)CNCCO` [compound P2] (H-[Gly(N-CH2CH2OH)]G[X1]G[Nlys]GG[Nlys]G[Nleu]G[Nlys]GG[Sar][Nlys]-NH2), for which the IC50 on PRMT1 is 8.73 ± 0.314 µM; on PRMT5 it was more than 500 µM. Further, on PRMT1 (warhead peptoid vs corresponding original peptoid), the “increase in potency (PRMT1 IC50) compared to the non-warhead H4-16 peptoid” value was 45 fold and > 45 fold.
With `CC(C)C[C@H](NC(=O)CNC(=O)[C@H](CCCCN)NC(=O)CNC(=O)CNC(=O)[C@H](CCCCN)NC(=O)CNC(=O)[C@H](CCCNC(=N)CCl)NC(=O)CNC(=O)[C@@H](N)CO)C(=O)NCC(=O)N[C@@H](CCCCN)C(=O)NCC(=O)NCC(=O)N[C@@H](C)C(=O)N[C@@H](CCCCN)C(N)=O` [Compound P2 Peptide] (H-SG[X2]GKGGKGLGKGGAK-NH2; N-terminus and C-terminus assumed), the IC50 at PRMT1 is 29.6 ± 5.16 µM.
Turning to `CC(=O)N(CCO)CC(=O)NCC(=O)N(CCCNC(=N)CCl)CC(=O)NCC(=O)N(CCCCN)CC(=O)NCC(=O)NCC(=O)N(CCCCN)CC(=O)NCC(=O)N(CC(=O)NCC(=O)N(CCCCN)CC(=O)NCC(=O)NCC(=O)N(C)CC(=O)N(CCCCN)CC(N)=O)CC(C)C` [compound P2A] (Ac-[Gly(N-CH2CH2OH)]G[X1]G[Nlys]GG[Nlys]G[Nleu]G[Nlys]GG[Sar][Nlys]-NH2), the IC50 on PRMT5 was more than 500 µM.

Source of the values: PMC9307946, “A peptoid-based inhibitor of protein arginine methyltransferase 1 (PRMT1) induces apoptosis and autophagy in cancer cells” (The Journal of Biological Chemistry, 2022).
